Measurements from PubChem BioAssay (NCI).
Where “and” joins values, the source holds several entries; their conditions need not be identical. Equal entries are not always repeated.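 Method: 48-hour compound exposure of cells in 96-well plates, five concentrations, linear interpolation of endpoints. The concentration for 50% growth inhibition is given as GI50. TGI marks complete inhibition of growth.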

Experiments:
Test in all cases: growth of human tumour cells (NCI), 48 h
HL-60(TB) leukemia = test system: HL-60(TB) leukemia
IGROV1 ovarian = test system: IGROV1 ovarian
KM12 colon = test system: KM12 colon
MALME-3M melanoma = test system: MALME-3M melanoma
OVCAR-3 ovarian = test system: OVCAR-3 ovarian
OVCAR-5 ovarian = test system: OVCAR-5 ovarian
SK-MEL-5 melanoma = test system: SK-MEL-5 melanoma
SK-OV-3 ovarian = test system: SK-OV-3 ovarian
SNB-19 CNS = test system: SNB-19 CNS
UO-31 renal = test system: UO-31 renal

Row | Structure (SMILES) | TGI (HL-60(TB) leukemia) | TGI (IGROV1 ovarian) | TGI (KM12 colon) | TGI (MALME-3M melanoma) | TGI (OVCAR-3 ovarian) | TGI (OVCAR-5 ovarian) | TGI (SK-MEL-5 melanoma) | TGI (SK-OV-3 ovarian) | TGI (SNB-19 CNS) | TGI (UO-31 renal) | GI50 (HL-60(TB) leukemia) | GI50 (KM12 colon) | GI50 (OVCAR-3 ovarian) | GI50 (OVCAR-5 ovarian) | GI50 (SK-OV-3 ovarian) | GI50 (SNB-19 CNS) | GI50 (UO-31 renal) | GI50 (IGROV1 ovarian) | GI50 (MALME-3M melanoma) | GI50 (SK-MEL-5 melanoma)
1 | CCC(=O)c1c(NOC2OCC(OC(C)=O)C(OC(C)=O)C2OC(C)=O)nc(OC)n(C)c1=O (configuration not stated) | > 100 µM | > 100 µM | > 100 µM | > 100 µM | > 100 µM | > 100 µM | > 100 µM | > 100 µM | > 100 µM | > 100 µM | – | – | – | – | – | – | – | – | – | –
2 | N/N=C1\C(=O)N(C2CCCCCC2)C(=O)C1C(=O)NC1CCCCCC1 (configuration not stated) | 45.1 µM | > 100 µM | > 100 µM | 45.3 µM | > 100 µM | > 100 µM | 43.6 µM | – | > 100 µM | 42 µM | – | – | – | – | – | – | – | – | – | –
3 | O=C(/C=C/c1ccccc1)C(Br)C(Br)c1ccccc1 (configuration not stated) | 3.58 µM | – | 4.38 µM | – | 2.45 µM | 3.39 µM | – | 13.3 µM | 17.7 µM | 2.48 µM | 1.34 µM | 2.07 µM | 1.17 µM | 1.67 µM | 3.66 µM | 4.72 µM | 1.19 µM | – | – | –
4 | O=C(CCC(=O)Nc1ccc(Cl)c(Cl)c1)CC(=O)c1ccc(Br)cc1 | – | > 100 µM | > 100 µM | > 100 µM | > 100 µM | > 100 µM | > 100 µM | > 100 µM | > 100 µM | > 100 µM | – | – | – | – | – | – | – | – | – | –
5 | COc1cc(C2SCCCCCCCCCCSC(c3ccc(O)c(OC)c3)SCCCCCCCCCCS2)ccc1O (configuration not stated) | – | > 100 µM | > 100 µM | > 100 µM | – | > 100 µM | > 100 µM | > 100 µM | > 100 µM | > 100 µM | – | – | – | – | – | – | – | – | – | –
6 | COc1cccc(/C(C#N)=C/c2nc3c(N4CCOCC4)nc(Cl)nc3n2C)c1 | 3.96 µM | 2.49 µM | 3.53 µM | 2.97 µM | 1.92 µM | 3.57 µM | 3.14 µM | 18.3 µM | – | 1.92 µM | 1.46 µM | 1.77 µM | 0.611 µM | 1.55 µM | 5.42 µM | – | 0.48 µM | 1.2 µM | 1.57 µM | 1.73 µM
7 | Cc1[nH]nc(C(F)(F)F)c1N=NN(C)C | 42.9 µM | – | 29.3 µM | 38.3 µM | 22.1 µM | – | > 100 µM | 25 µM | 28.8 µM | 5.03 µM | – | – | – | – | – | – | – | – | – | –
8 | COc1ccc(S(=O)(=O)N2CCN(C(=O)c3ccc(-c4ccccc4)cc3)CC2C(=O)NO)cc1 (configuration not stated) | 38.1 µM | – | – | – | 11.2 µM and 47.6 µM | 12.5 µM and > 100 µM | – | > 100 µM | 12.5 µM and > 100 µM | 10.4 µM and > 100 µM | 16.8 µM | – | 3.88 µM and 11.2 µM | – | > 100 µM | – | – | – | 2.25 µM and 17.3 µM | –
9 | O=C(O)c1ccc(CI)cc1 | 42.4 µM | 38.2 µM | – | 23.3 µM | 23.3 µM | 34.5 µM | 31.3 µM | 55 µM | 31.9 µM | 32.7 µM | – | – | – | – | – | – | – | – | – | –
10 | C#Cc1cccc(N2C(=O)c3c(c(-c4ccccc4)c(-c4ccc(Cc5ccc(-c6c(-c7ccccc7)c7c(c(-c8ccccc8)c6-c6ccccc6)C(=O)N(c6cccc(C#C)c6)C7=O)cc5)cc4)c(-c4ccccc4)c3-c3ccccc3)C2=O)c1 | > 100 µM | 45.2 µM | > 100 µM | > 100 µM | > 100 µM | > 100 µM | 62 µM | – | > 100 µM | > 100 µM | – | – | – | – | – | – | – | – | – | –
11 | C=C(CC(NC(=O)c1ccc(C(CC)Cc2cnc3nc(N)nc(N)c3n2)cc1)C(=O)O)C(=O)O (configuration not stated) | > 100 µM | > 100 µM | – | – | – | – | > 100 µM | > 100 µM | > 100 µM | > 100 µM | – | – | – | – | 0.0669 µM | – | 0.0271 µM | – | – | –
